One data set deals with T1, Rev-Erb alpha (Homo sapiens, UniProt P20393).
T1 sequence (P20393 284-614 limits assumed): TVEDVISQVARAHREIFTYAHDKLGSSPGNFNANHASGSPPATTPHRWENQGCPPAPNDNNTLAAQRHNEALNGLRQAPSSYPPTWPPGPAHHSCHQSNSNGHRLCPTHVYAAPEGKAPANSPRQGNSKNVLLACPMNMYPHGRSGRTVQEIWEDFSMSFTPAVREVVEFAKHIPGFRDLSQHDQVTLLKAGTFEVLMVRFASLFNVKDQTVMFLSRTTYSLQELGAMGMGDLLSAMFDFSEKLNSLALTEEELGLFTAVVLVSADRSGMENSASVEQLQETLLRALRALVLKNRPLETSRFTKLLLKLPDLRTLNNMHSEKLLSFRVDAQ
Put plainly: M2H (mammalian two-hybrid) cellular activation assay of Rev-Erb alpha. The class given is cell-based. To be noted: M2H assay, HEK293 cells; for EC50: Gal4-Rev-Erb alpha / VP16-NCoR, luciferase reporter; for Emax: relative to DMSO, at the tested dose, read-out: TOP activation. The procedure, abridged:
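Six-point dose-response, 18 h, 37 °C, serum-free, in HEK293 cells carrying a Gal4-RE luciferase reporter with Gal4-Rev-Erb alpha or beta plus VP16-NCoR (corepressor interaction readout). EC50 and TOP activation (%) derived from luminescence across four experiments.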

Each structure is given as a SMILES string.

The compound `Cc1cc2nnc(C(F)(F)F)n2nc1Oc1cc(C(F)(F)F)ccc1-c1cccnc1` [Cpd.5-33, 7-methyl-6-(2-(pyridin-3-yl)-5-(trifluoromethyl)phenoxy)-3-(trifluoromethyl)-[1,2,4]triazolo[4,3-b]pyridazine] showed a melting point of 173 to 175 °C. The same compound registered a concentration for a half-maximal effect (EC50) at Rev-Erb alpha of 1000 to 6000 nM.

On to `CCc1nnc2cc(C)c(Oc3cc(C(F)(F)F)ccc3-c3cccnc3)nn12` [Cpd.5-49, 3-ethyl-7-methyl-6-(2-(pyridin-3-yl)-5-(trifluoromethyl)phenoxy)-[1,2,4]triazolo[4,3-b]pyridazine], for which the melting point fell in the range of 174 to 176 °C. The EC50 at Rev-Erb alpha is 1000 to 6000 nM.

Regarding `COc1cccc(-c2ccc(C(F)(F)F)cc2Oc2ccc3nnc(C(F)(F)F)n3n2)c1` [Cpd.4-137, 3-(trifluoromethyl)-6-(3′-methoxy-4-(trifluoromethyl)biphenyl-2-yloxy)-[1,2,4]triazolo[4,3-b]pyridazine], the melting point amounted to 102.5 °C. Moreover, the EC50 on Rev-Erb alpha was 100 to 1000 nM.

`NC(=O)c1ccc(Oc2ccc3nnc(Cl)n3n2)c(-c2ccccc2)c1` [Cpd.4-70, 3-chloro-6-(5-aminocarbonyl-biphenyl-2-yloxy)-[1,2,4]triazolo[4,3-b]pyridazine] returned a melting point of 196.5 to 198.4 °C. At Rev-Erb alpha, the half-maximal effective concentration (EC50) was above 6000 nM and the Emax is above 130%.

`FC(F)(F)c1ccc(-c2ccccc2)c(Oc2ccc3nnc(C(F)(F)F)n3n2)c1` [Cpd.4-38, 6-(4-trifluoromethyl-biphenyl-2-yloxy)-3-(trifluoromethyl)-[1,2,4]triazolo[4,3-b]pyridazine] yielded a melting point of 150 °C. The EC50 on Rev-Erb alpha fell in the range of 100 to 1000 nM.

Take `Clc1ccc(Oc2nn3c(Cl)nnc3c3ccccc23)c(-c2cncnc2)c1` [Cpd.5-60, 3-chloro-6-(4-chloro-2-(pyrimidin-5-yl)phenoxy)-[1,2,4]triazolo[3,4-a]phthalazine]: the melting point lay in the range of 252 to 253 °C. The same compound yielded an EC50 on Rev-Erb alpha of 100 to 1000 nM.

`Cc1cc2nncn2nc1Oc1cc(C(F)(F)F)ccc1-c1cncnc1` [Cpd.5-44, 7-methyl-6-(2-(pyrimidin-5-yl)-5-(trifluoromethyl)phenoxy)-[1,2,4]triazolo[4,3-b]pyridazine] came in with a melting point of 179 to 181 °C. On Rev-Erb alpha, the EC50 is above 6000 nM and the Emax was above 130%.

Turning to `Fc1ccccc1-c1cccc(Oc2ccc3nnc(Cl)n3n2)c1` [Cpd.3-10, 6-(2′-fluoro-biphenyl-3-yloxy)-3-chloro-[1,2,4]triazolo[4,3-b]pyridazine], the melting point is 128.6 °C. Also, at Rev-Erb alpha, the half-maximal effective concentration (EC50) is 100 to 1000 nM.

In turn, `Fc1ccc2c(c1)c(Oc1cc(C(F)(F)F)ccc1-c1ccccc1)nn1c(Cl)nnc21` [Cpd.5-3, 3-chloro-6-(4-trifluoromethyl-biphenyl-2-yloxy)-8-fluoro-[1,2,4]triazolo[3,4-a]phthalazine] registered a melting point of 213 to 215 °C. On Rev-Erb alpha, this compound displayed a 50% effective concentration (EC50) of 100 to 1000 nM.

On to `Clc1ccc(Oc2ccc3nnc(Cl)n3n2)c(Cc2ccccc2)c1` [Cpd.4-146, 6-(2-benzyl-4-chloro-phenoxy)-3-chloro-[1,2,4]triazolo[4,3-b]pyridazine], for which the melting point lay within 161 to 162 °C. Also, the EC50 at Rev-Erb alpha is 100 to 1000 nM.

In the case of `CCCCNc1ccc(-c2ccccc2)c(Oc2ccc3nnc(Cl)n3n2)c1` [Cpd.4-50, 3-chloro-6-(4-N-butylamino-biphenyl-2-yloxy)-[1,2,4]triazolo[4,3-b]pyridazine], the melting point lay within 132 to 135 °C. This compound also came in with an EC50 on Rev-Erb alpha of 100 to 1000 nM.

Compound `COc1ccc(-c2ccc(F)cc2)c(Oc2ccc3nnc(Cl)n3n2)c1` [Cpd.4-34, 6-(4′-fluoro-4-methoxy-biphenyl-2-yloxy)-3-chloro-[1,2,4]triazolo[4,3-b]pyridazine] returned a melting point of 171.7 °C. The same compound came in with a concentration giving a half-maximal response (EC50) on Rev-Erb alpha of 100 to 1000 nM.

In turn, `COc1ccc(Oc2ccc3nnc(Cl)n3n2)c(-c2ccccc2)c1` [Cpd.4-14, 6-(5-methoxybiphenyl-2-yloxy)-3-chloro-[1,2,4]triazolo[4,3-b]pyridazine] had a melting point of 164.6 °C. The concentration for a half-maximal effect (EC50) at Rev-Erb alpha fell in the range of 100 to 1000 nM.

For the compound `CC(C)N(Cc1ccc(Oc2ccc3nnc(Cl)n3n2)c(-c2ccccc2)c1)C(C)C` [Cpd.4-166, 3-chloro-6-(5-(diisopropylaminomethyl)biphenyl-2-yloxy)-[1,2,4]triazolo[4,3-b]pyridazine], the melting point was determined as 59.1 °C. On Rev-Erb alpha, this compound returned an EC50 of 1000 to 6000 nM.

In turn, `Fc1ccc(Oc2ccc3nnc(Cl)n3n2)c(-c2cccc(C(F)(F)F)c2)c1` [Cpd.4-148, 3-chloro-6-(5-fluoro-3′-(trifluoromethyl)biphenyl-2-yloxy)-[1,2,4]triazolo[4,3-b]pyridazine] displayed a melting point of 94.5 to 96.1 °C. This compound came in with an EC50 at Rev-Erb alpha of 1000 to 6000 nM.

Take `COc1ncc(F)cc1-c1ccc(C(F)(F)F)cc1Oc1nn2c(Cl)nnc2cc1C` [Cpd.5-41, 3-chloro-7-methyl-6-((2-(2-methoxy-5-fluoropyridin-3-yl))-5-(trifluoromethyl)phenoxy)-[1,2,4]triazolo[4,3-b]pyridazine]: the melting point was 163 to 166 °C. Moreover, at Rev-Erb alpha, the half-maximal effective concentration (EC50) lay in the range of 100 to 1000 nM.

As to `CCc1nnc2c(C)cc(Oc3cc(C(F)(F)F)ccc3-c3cncnc3)nn12` [Cpd.5-48, 3-ethyl-8-methyl-6-(2-(pyrimidin-5-yl)-5-(trifluoromethyl)phenoxy)-[1,2,4]triazolo[4,3-b]pyridazine], the melting point lay in the range of 182 to 184 °C. This compound also came in with a concentration for a half-maximal effect (EC50) at Rev-Erb alpha of 1000 to 6000 nM.

As for `CC(C)Nc1ccc(-c2ccccc2)c(Oc2ccc3nnc(Cl)n3n2)c1` [Cpd.4-189, 3-chloro-6-(4-isopropylamino-biphenyl-2-yloxy)-[1,2,4]triazolo[4,3-b]pyridazine], the melting point is 170 to 175 °C. At Rev-Erb alpha, this compound showed a concentration for a half-maximal effect (EC50) below 100 nM.

Compound `COc1nccc(C)c1-c1ccc(C(F)(F)F)cc1Oc1nn2c(Cl)nnc2cc1C` [Cpd.5-40, 3-chloro-7-methyl-6-((2-(2-methoxy-4-methylpyridin-3-yl))-5-(trifluoromethyl)phenoxy)-[1,2,4]triazolo[4,3-b]pyridazine] gave a melting point of 161 to 162 °C. The same compound yielded an EC50 on Rev-Erb alpha of 1000 to 6000 nM.

On to `COc1cccc(-c2cc(F)c(F)cc2Oc2ccc3nnc(Cl)n3n2)c1` [Cpd.4-152, 3-chloro-6-(4,5-difluoro-3′-methoxybiphenyl-2-yloxy)-[1,2,4]triazolo[4,3-b]pyridazine], for which the melting point came out at 102 °C. Moreover, the EC50 on Rev-Erb alpha fell in the range of 1000 to 6000 nM.

The compound `CNc1ccc(Oc2ccc3nnc(Cl)n3n2)c(-c2ccccc2)c1` [Cpd.4-47, 3-chloro-6-(5-methylamino-biphenyl-2-yloxy)-[1,2,4]triazolo[4,3-b]pyridazine] returned a melting point of 157 to 158 °C. On Rev-Erb alpha, this compound displayed an EC50 below 100 nM.

The compound `COc1ccc(-c2cccc(C(F)(F)F)c2)c(Oc2ccc3nnc(Cl)n3n2)c1` [Cpd.4-113, 3-chloro-6-{[4-methoxy-3′-(trifluoromethyl)biphenyl-2-yl]oxy}-[1,2,4]triazolo[4,3-b]pyridazine] gave a melting point of 111.6 °C. At Rev-Erb alpha, this compound returned an EC50 of 100 to 1000 nM.

Turning to `Clc1ccccc1-c1ccccc1Oc1ccc2nnc(Cl)n2n1` [Cpd.4-25, 6-(2′-chloro-biphenyl-2-yloxy)-3-chloro-[1,2,4]triazolo[4,3-b]pyridazine], the melting point stood at 81.9 °C. This compound also gave an EC50 on Rev-Erb alpha below 100 nM.

`Clc1cccc(-c2cccc(Oc3ccc4nnc(Cl)n4n3)c2)c1` [Cpd.3-13, 3-chloro-6-(3′-chlorobiphenyl-3-yloxy)-[1,2,4]triazolo[4,3-b]pyridazine] showed a melting point of 77.5 to 123.8 °C. Besides, the 50% effective concentration (EC50) on Rev-Erb alpha fell in the range of 100 to 1000 nM.

As for `Cc1ccc(-c2ccccc2Oc2ccc3nnc(Cl)n3n2)cc1` [Cpd.4-23, 6-(4′-methyl-biphenyl-2-yloxy)-3-chloro-[1,2,4]triazolo[4,3-b]pyridazine], the melting point lay in the range of 166.9 to 173.4 °C. Also, the 50% effective concentration (EC50) on Rev-Erb alpha was 100 to 1000 nM.

`N#Cc1ccc(Oc2ccc3nnc(Cl)n3n2)c(-c2ccccc2)c1` [Cpd.4-154, 3-chloro-6-(5-cyanobiphenyl-2-yloxy)-[1,2,4]triazolo[4,3-b]pyridazine] registered a melting point of 208 to 209 °C. The compound also yielded a concentration giving a half-maximal response (EC50) at Rev-Erb alpha of 1000 to 6000 nM.

Regarding `O=[N+]([O-])c1cccc(-c2cc(F)ccc2Oc2ccc3nnc(Cl)n3n2)c1` [Cpd.4-187, 3-chloro-6-(5-fluoro-3′-nitrobiphenyl-2-yloxy)-[1,2,4]triazolo[4,3-b]pyridazine], the melting point is 190.5 °C. This compound also returned a 50% effective concentration (EC50) on Rev-Erb alpha of 1000 to 6000 nM.

In turn, `Cc1ncc(-c2ccc(C(F)(F)F)cc2Oc2cc(C)c3nnc(Cl)n3n2)cn1` [Cpd.5-37, 3-chloro-8-methyl-6-((2-(2-methylpyrimidin-5-yl))-5-(trifluoromethyl)phenoxy)-[1,2,4]triazolo[4,3-b]pyridazine] came in with a melting point of 200 to 202 °C. In addition, the 50% effective concentration (EC50) at Rev-Erb alpha lay in the range of 1000 to 6000 nM.

For the compound `CCOc1ccc(Oc2ccc3nnc(Cl)n3n2)c(-c2ccccc2)c1` [Cpd.4-139, 3-chloro-6-(5-ethoxybiphenyl-2-yloxy)-[1,2,4]triazolo[4,3-b]pyridazine], the melting point was in the range of 89.7 to 90.8 °C. In addition, the EC50 at Rev-Erb alpha is 100 to 1000 nM.

Take `Cc1cc2nnc(C(F)(F)F)n2nc1Oc1cc(C(F)(F)F)ccc1-c1cncnc1` [Cpd.5-61, 7-methyl-6-(2-(pyrimidin-5-yl)-5-(trifluoromethyl)phenoxy)-3-(trifluoromethyl)-[1,2,4]triazolo[4,3-b]pyridazine]: the melting point was in the range of 174 to 179 °C. The same compound showed an EC50 on Rev-Erb alpha of 1000 to 6000 nM.
